Assay results reported in patent publication US20080306118A1, “Process for the crystallization of (R) - or (S) - Lansoprazole” (Takeda Pharmaceutical Company Limited, priority 2000, published 2008).
Blank lines part the entries; values can stand above or below the molecule they belong to.

Assay: Stability test (relationship between melting start temperature and stability) of lansoprazole enantiomer crystals
Assay type: physicochemical
Details: for appearance after stability tests (FIG. 1): 40° C. 2 weeks, 50° C. 2 weeks and 60° C. 2 weeks, compared with before test; for 60° C. one month residual ratio: crystal, stability test at 60° C. for one month
Description: Stability Test (Relationship Between Melting Start Temperature and Stability)
Various (R)-lansoprazole crystals obtained in the above-mentioned Reference Examples and Examples were subjected to a stability test at 60° C. for one month.
The crystal of (R)-lansoprazole was subjected to a 40° C. one month stability test.
In FIG. 1, the appearance of a crystal (Example 1) having a melting start temperature of about 134° C. and a crystal (Reference Example 6) having a melting start temperature of about 130° C. before stability test and after stability tests (40° C. 2 weeks, 50° C. 2 weeks and 60° C. 2 weeks) is shown.

[1] = initial (before 40° C. one month stability test)

SMILES: Cc1c(OCC(F)(F)F)ccnc1C[S@@+]([O-])c1nc2ccccc2[nH]1 [Reference Example 6, (R)-2-[[[3-methyl-4-(2,2,2-trifluoroethoxy)-2-pyridinyl]methyl]sulfinyl]-1H-benzimidazole, reference compound]
- appearance after stability tests (FIG. 1): showed appreciably degraded appearance
- 60° C. one month residual ratio: 93.8%

SMILES: Cc1c(OCC(F)(F)F)ccnc1C[S@@+]([O-])c1nc2ccccc2[nH]1 [Reference Example 3, (R)-2-[[[3-methyl-4-(2,2,2-trifluoroethoxy)-2-pyridinyl]methyl]sulfinyl]-1H-benzimidazole, reference compound]
- 60° C. one month residual ratio: 89.8%

SMILES: Cc1c(OCC(F)(F)F)ccnc1C[S@@+]([O-])c1nc2ccccc2[nH]1 [Example 6, (R)-2-[[[3-methyl-4-(2,2,2-trifluoroethoxy)-2-pyridinyl]methyl]sulfinyl]-1H-benzimidazole]
- 60° C. one month residual ratio: 99.2%

The remaining lines, values ahead:

- analogous material content (40° C. one month): 0.2%
- appearance (40° C. one month): almost white
- content (40° C. one month): 99.7%
- analogous material content [1]: 0.2%
- appearance [1]: almost white
- content [1]: 99.5%
SMILES: Cc1c(OCC(F)(F)F)ccnc1C[S@@+]([O-])c1nc2ccccc2[nH]1 [Example 11, (R)-2-[[[3-methyl-4-(2,2,2-trifluoroethoxy)-2-pyridinyl]methyl]sulfinyl]-1H-benzimidazole]

- analogous material content (40° C. one month): 4.6%
- appearance (40° C. one month): brown
- content (40° C. one month): 93.8%
- analogous material content [1]: 0.1%
- appearance [1]: almost white
- content [1]: 99.6%
SMILES: Cc1c(OCC(F)(F)F)ccnc1C[S@@+]([O-])c1nc2ccccc2[nH]1 [Reference Example 7, (R)-2-[[[3-methyl-4-(2,2,2-trifluoroethoxy)-2-pyridinyl]methyl]sulfinyl]-1H-benzimidazole, reference compound]

- appearance after stability tests (FIG. 1): did not show changes in the appearance
- 60° C. one month residual ratio: 99.7%
SMILES: Cc1c(OCC(F)(F)F)ccnc1C[S@@+]([O-])c1nc2ccccc2[nH]1 [Example 1, (R)-2-[[[3-methyl-4-(2,2,2-trifluoroethoxy)-2-pyridinyl]methyl]sulfinyl]-1H-benzimidazole]

- 60° C. one month residual ratio: 100%
SMILES: Cc1c(OCC(F)(F)F)ccnc1C[S@@+]([O-])c1nc2ccccc2[nH]1 [Example 2, (R)-2-[[[3-methyl-4-(2,2,2-trifluoroethoxy)-2-pyridinyl]methyl]sulfinyl]-1H-benzimidazole]
